Assay results as given in patent publication US9109043B2 (Tokyo Institute of Technology, priority 2010, dated 2015).
Entries after “also recorded” stand apart in the source; their conditions may differ. Where two headings read alike, the source gives them in different places.

Columns and labels:
[1] = target: T1, insulin secretion regulation factor (ATIS1) (Mus musculus, UniProt Q6P5E4); assay: Release of radiolabelled ATIS1 from arginine-immobilized agarose by amino acids and sugars; assay type: binding; conditions: silver stained gel, FIG. 8A
T1 construct: made in house; host or cells: cell-free: TNT Quick coupled transcription/translation system (Promega)
T1 sequence (Q6P5E4 43-1551): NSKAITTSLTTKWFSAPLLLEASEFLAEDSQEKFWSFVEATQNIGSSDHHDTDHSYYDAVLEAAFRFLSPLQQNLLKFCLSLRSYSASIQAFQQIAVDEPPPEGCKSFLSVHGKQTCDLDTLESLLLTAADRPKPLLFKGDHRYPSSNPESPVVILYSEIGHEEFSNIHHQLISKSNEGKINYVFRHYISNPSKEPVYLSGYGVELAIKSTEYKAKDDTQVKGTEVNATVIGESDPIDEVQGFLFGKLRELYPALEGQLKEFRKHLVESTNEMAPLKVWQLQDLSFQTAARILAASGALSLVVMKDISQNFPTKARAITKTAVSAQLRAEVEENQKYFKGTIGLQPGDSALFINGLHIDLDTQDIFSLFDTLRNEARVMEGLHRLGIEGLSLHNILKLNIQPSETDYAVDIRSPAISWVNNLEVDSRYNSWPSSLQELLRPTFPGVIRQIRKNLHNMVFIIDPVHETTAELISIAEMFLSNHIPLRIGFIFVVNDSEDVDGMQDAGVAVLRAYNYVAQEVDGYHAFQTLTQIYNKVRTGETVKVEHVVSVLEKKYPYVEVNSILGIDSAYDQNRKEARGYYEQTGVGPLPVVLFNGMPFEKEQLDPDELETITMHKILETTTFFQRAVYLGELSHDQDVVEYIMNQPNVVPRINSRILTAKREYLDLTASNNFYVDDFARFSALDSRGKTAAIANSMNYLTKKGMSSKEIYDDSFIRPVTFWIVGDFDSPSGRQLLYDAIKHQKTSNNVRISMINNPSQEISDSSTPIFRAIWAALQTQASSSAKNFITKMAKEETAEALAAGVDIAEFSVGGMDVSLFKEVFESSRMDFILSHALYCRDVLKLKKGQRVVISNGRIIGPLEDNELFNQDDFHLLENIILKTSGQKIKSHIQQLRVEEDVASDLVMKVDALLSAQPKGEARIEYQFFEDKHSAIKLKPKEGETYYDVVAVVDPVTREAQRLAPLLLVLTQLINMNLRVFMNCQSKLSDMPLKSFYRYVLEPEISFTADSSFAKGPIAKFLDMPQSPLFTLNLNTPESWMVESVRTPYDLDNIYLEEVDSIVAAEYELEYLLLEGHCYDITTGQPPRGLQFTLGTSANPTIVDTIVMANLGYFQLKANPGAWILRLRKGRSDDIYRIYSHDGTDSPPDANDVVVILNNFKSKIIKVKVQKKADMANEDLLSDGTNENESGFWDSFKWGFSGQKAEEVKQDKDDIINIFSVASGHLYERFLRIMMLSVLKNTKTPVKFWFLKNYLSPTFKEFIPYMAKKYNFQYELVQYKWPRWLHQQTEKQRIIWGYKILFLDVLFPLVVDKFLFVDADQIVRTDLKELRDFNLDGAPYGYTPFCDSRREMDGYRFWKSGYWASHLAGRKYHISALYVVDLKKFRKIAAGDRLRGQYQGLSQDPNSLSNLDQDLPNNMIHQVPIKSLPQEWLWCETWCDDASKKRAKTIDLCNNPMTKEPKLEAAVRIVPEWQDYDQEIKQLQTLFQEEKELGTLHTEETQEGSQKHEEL

[2] = test system: NIT-1 cells in which insulin secretion regulation factor was forcibly expressed; assay: Insulin secretion by NIT-1 cells with forced expression of insulin secretion regulation factor (ELISA); assay type: cell-based, mouse
[3] = target: T2, insulin secretion regulation factor (Mus musculus, UniProt Q6P5E4); assay: Partial protease digestion of radiolabelled insulin secretion regulation factor in presence of amino acid; assay type: binding; set-up: made in house; host or cells: cell-free: TNT Quick coupled transcription/translation system (Promega); conditions: 100 μM arginine, on ice 10 minutes, vs absence, phenylalanine or leucine
Target sequence in this assay (Q6P5E4 whole entry): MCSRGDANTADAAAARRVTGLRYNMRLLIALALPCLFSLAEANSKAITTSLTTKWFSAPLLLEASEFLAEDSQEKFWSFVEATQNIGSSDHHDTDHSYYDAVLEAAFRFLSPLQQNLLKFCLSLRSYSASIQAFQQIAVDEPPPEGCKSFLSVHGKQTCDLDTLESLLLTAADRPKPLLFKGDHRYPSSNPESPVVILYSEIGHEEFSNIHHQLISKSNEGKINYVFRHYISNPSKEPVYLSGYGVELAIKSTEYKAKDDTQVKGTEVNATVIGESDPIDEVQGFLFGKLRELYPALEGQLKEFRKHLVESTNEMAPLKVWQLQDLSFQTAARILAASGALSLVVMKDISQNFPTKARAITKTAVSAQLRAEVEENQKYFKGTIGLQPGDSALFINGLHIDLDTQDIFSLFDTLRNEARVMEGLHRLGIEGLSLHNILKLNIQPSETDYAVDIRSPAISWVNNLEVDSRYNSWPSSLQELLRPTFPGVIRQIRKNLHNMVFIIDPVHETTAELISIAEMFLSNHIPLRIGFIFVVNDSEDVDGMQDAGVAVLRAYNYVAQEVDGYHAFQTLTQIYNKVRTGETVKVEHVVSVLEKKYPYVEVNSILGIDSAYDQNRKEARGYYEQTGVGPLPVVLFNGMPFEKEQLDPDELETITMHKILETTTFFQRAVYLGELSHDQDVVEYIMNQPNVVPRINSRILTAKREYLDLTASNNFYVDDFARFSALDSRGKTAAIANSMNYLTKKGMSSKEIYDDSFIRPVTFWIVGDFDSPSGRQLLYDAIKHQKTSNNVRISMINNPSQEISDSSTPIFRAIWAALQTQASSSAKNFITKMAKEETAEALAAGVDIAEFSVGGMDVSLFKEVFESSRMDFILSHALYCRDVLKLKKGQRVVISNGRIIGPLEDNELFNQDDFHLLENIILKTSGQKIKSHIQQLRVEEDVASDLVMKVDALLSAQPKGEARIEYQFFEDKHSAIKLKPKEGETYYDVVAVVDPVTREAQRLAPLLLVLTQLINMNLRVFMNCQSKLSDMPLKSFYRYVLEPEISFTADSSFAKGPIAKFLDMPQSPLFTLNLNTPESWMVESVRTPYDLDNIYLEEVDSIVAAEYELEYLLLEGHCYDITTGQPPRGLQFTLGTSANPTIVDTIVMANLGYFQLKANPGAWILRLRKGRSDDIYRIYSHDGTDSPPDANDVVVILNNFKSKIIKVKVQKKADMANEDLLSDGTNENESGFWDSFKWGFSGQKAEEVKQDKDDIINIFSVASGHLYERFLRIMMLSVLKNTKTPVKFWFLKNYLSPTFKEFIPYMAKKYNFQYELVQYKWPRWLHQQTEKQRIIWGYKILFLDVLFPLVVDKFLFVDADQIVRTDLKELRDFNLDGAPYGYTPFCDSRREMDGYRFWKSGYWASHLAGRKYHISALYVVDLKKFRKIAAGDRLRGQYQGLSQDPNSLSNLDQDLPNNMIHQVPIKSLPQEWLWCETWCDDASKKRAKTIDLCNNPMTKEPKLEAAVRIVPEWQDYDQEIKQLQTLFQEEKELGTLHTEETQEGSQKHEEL

[4] = target: T1, insulin secretion regulation factor (ATIS1); assay: Release of radiolabelled ATIS1 from insulin-immobilized agarose by test substance; assay type: binding
[5] = test system: transformed cultured cells secreting fluorescently labeled insulin; assay: Fluorescence microscopy of transformed cultured cells secreting fluorescently labeled insulin; assay type: cell-based; conditions: arginine 10 mM, 10 and 60 seconds after administration and thereafter, data not shown
Method: Thus, transformed cultured cells were prepared so as to secrete fluorescently labeled insulin. Using the cells, it was possible to observe insulin secretion by arginine addition and temporal changes in the intracellular localization of insulin with a fluorescent microscope. […] This experimental system can also be applied to the screening of a candidate substance, other than arginine, that promotes insulin secretion.

[6] = target: T2, insulin secretion regulation factor; assay: Disconnection of insulin from insulin secretion regulation factor by arginine; assay type: binding; set-up: made in house; host or cells: Escherichia coli; conditions: depending on amount of arginine added, FIG. 3C
Target sequence in this assay (Q6P5E4 43-1551): as the sequence (Q6P5E4 43-1551) above

[7] = target: T2, insulin secretion regulation factor; assay: Competitive inhibition of radiolabelled arginine binding to insulin secretion regulation factor; set-up: made in house; host or cells: Escherichia coli; conditions: increasing concentration of cold competitor, FIG. 2B, FIG. 3A
Target sequence in this assay (Q6P5E4 43-1551): as above

[8] = test system: wild type NIT-1 cells; assay: Arginine-induced insulin secretion by wild type NIT-1 cells (ELISA); assay type: cell-based, mouse; conditions: arginine 0.1-20 mM, 10 minutes, FIG. 4

Q: With N[C@@H](Cc1ccccc1)C(=O)O [Phenylalanine, phenylalanine] as the molecule, how does the “interaction (binding) with insulin secretion regulation factor ATIS1” value (“interaction (binding)” below) [1] read?
A: did not bind to ATIS1

Q: N=C(N)NCCC[C@H](N)C(=O)O [arginine] was tested. Which “amount of insulin secreted per unit time” value [2] did it give?
A: about 2 pg/cell/min

Q: What about the “resistance of insulin secretion regulation factor to chymotrypsin partial digestion” value [3] of the same molecule?
A: significant resistance to chymotrypsin partial digestion

Q: And the “resistance of insulin secretion regulation factor to trypsin partial digestion” value ([3]; FIG. 2C)?
A: significant resistance to trypsin partial digestion

Q: What about the “competition with insulin for insulin secretion regulation factor” value [4] of the same molecule?
A: competes with insulin

Q: And the “intracellular localization and secretion of fluorescently labeled insulin” value [5]?
A: being extracellularly secreted thereafter resulting in the disappearance of fluorescence

Q: What about the “insulin disconnected from insulin secretion regulation factor” value [6] of the same molecule?
A: the amount of disconnected insulin increases

Q: What about the “radiolabelled arginine disconnected from insulin secretion regulation factor” value [7] of the same molecule?
A: the radiolabelled arginine that had been bound was disconnected from insulin secretion regulation factor; also recorded: the amount of disconnected radiolabelled arginine increased

Q: What about the arginine-induced insulin secretion [8] of the same molecule?
A: depending on arginine concentration, insulin secretion is promoted

Q: What about the “interaction (binding)” value [1] of the same molecule?
A: interacted with the insulin secretion regulation factor

Q: How did the “interaction (binding)” value [1] turn out when NC(=O)NCCC[C@H](N)C(=O)O [citrulline] was run?
A: did not exhibit the ATIS1 binding activity

Q: How did the “amount of insulin secreted per unit time” value ([2]; 10 mM substance, cultured 10 minutes, FIG. 6A) turn out when CC(C)=CCc1cc(/C=C/C(=O)O)ccc1O [drupanin] was run?
A: about 2 pg/cell/min

Q: And the “competition with insulin for insulin secretion regulation factor” value ([4]; autoradiography, FIG. 6B)?
A: competes with insulin

Q: With NCCCC[C@H](N)C(=O)O [lysine] as the molecule, how does the “interaction (binding)” value [1] read?
A: interacted with the insulin secretion regulation factor

Q: With NCCC[C@H](N)C(=O)O [ornithine] as the molecule, how does the “interaction (binding)” value [1] read?
A: interacted with the insulin secretion regulation factor
